For one data set, the system named is MDA-MB-231. Put plainly: Antiproliferative activity against human MDA-MB-231 cells assessed as inhibition of cell growth incubated for 24 hrs by MTT assay. It is filed as functional, cell-based. To be noted: MDA-MB-231, 24 h. (In general: Formazan colour is commonly taken as a measure of viable cells.)
The test system of a further data set is MCF7. As to the kind of experiment: Antiproliferative activity against human MCF7 cells assessed as inhibition of cell growth incubated for 24 hrs by MTT assay. It is filed as functional, cell-based. To be noted: MCF7, 24 h.
The test system of the next data set is Rattus norvegicus. As to the kind of experiment: Toxicity in Sprague-Dawley rat inoculated with rat LA7 cells assessed as increase in uterine tissue at 10 mg/kg administered daily for 21 days. It counts as organism-based. Conditions: in vivo, 504 h, time 21 day.

Each structure is given as a SMILES string.

By IC50 is commonly meant the concentration that inhibits the measured activity by half.

Turning to `Oc1ccc(C[C@H]2COc3ccccc3N2Cc2ccc(O)cc2)cc1`, the IC50 turned out to be 40.2 µM with MDA-MB-231 and 24.4 µM in the data set on MCF7.
For `CCN1c2ccccc2OC[C@@H]1Cc1ccc(O)cc1`, the values for the IC50 with MDA-MB-231 and with MCF7 were 43.6 µM and 30.4 µM, respectively.
The like results for `COc1ccc(C[C@H]2COc3ccccc3N2Cc2ccccc2)cc1` were, in that order, greater than 50 µM and greater than 50 µM.
`CCN(CC)CCOc1ccc(CN2c3ccccc3OC[C@@H]2Cc2ccc(OC)cc2)cc1`: the values for the IC50 in the data set on MDA-MB-231 and in the data set with MCF7 were 0.97 µM and 6.95 µM, respectively.
Consider `CC/C(=C(\c1ccccc1)c1ccc(OCCN(C)C)cc1)c1ccccc1` [TAMOXIFEN], for which the concentration for half-maximal inhibition (IC50) in the data set with MCF7 came to 5.4 µM. Moreover, in the data set with Rattus norvegicus, the Activity entry was “Toxic”.
With `c1ccc(CN2c3ccccc3OC[C@@H]2Cc2ccc(OCCN3CCCCC3)cc2)cc1`, the figures for the IC50 with MDA-MB-231 and in the data set with MCF7 were greater than 50 µM and 22 µM, respectively.
For `c1ccc(CN2c3ccccc3OC[C@@H]2Cc2ccc(OCCN3CCCC3)cc2)cc1`, in that order: greater than 50 µM and 21.1 µM.
Consider `Oc1ccc(C[C@H]2COc3ccccc3N2Cc2ccccc2)cc1`, for which the IC50 came to 32.5 µM with MDA-MB-231 and 41.6 µM in the data set with MCF7.
For `CN1c2ccccc2OC[C@@H]1Cc1ccc(OCCN2CCCCC2)cc1`, in that order: greater than 50 µM and greater than 50 µM.
For the compound `COc1ccc(C[C@H]2COc3ccc(C(F)(F)F)cc3N2Cc2ccc(OCCN3CCCCC3)cc2)cc1`, the IC50 was determined as 6.36 µM in the data set on MDA-MB-231 and 6.1 µM with MCF7.
Take `COc1ccc(C[C@H]2COc3ccc(OC)cc3N2Cc2ccc(OCCN3CCCCC3)cc2)cc1`: the IC50 with MDA-MB-231 was 2.64 µM; in the data set with MCF7, 2.6 µM.
Turning to `COc1ccc(C[C@H]2COc3ccccc3N2C(=O)c2ccc(N)cc2)cc1`, the IC50 in the data set on MDA-MB-231 and with MCF7 was greater than 50 µM in each case.
On to `CN(C)CCOc1ccc(C[C@H]2COc3ccccc3N2C)cc1`, for which the IC50 in the data set with MDA-MB-231 and with MCF7 was greater than 50 µM in each case.
For the compound `COc1ccc(C[C@@H]2COc3ccccc3N2Cc2ccc(OCCN3CCCC3)cc2)cc1`, the IC50 with MDA-MB-231 was 6.52 µM; in the data set with MCF7 it was 7.03 µM.
The like results for `COc1ccc(C[C@H]2COc3ccccc3N2Cc2ccc(OCCN3CCOCC3)cc2)cc1` were, in that order, 31.3 µM and 83.6 µM.
Regarding `COc1ccc(C[C@H]2COc3ccc(F)cc3N2Cc2ccc(OCCN3CCCCC3)cc2)cc1`, the figures for the IC50 with MDA-MB-231 and in the data set with MCF7 were 2.92 µM and 3.61 µM, respectively.
For `COc1ccc(C[C@H]2COc3ccccc3N2C)cc1`, in that order: greater than 50 µM and greater than 50 µM.
For `Oc1ccc(C[C@H]2COc3ccccc3N2)cc1`, the IC50 in the data set on MDA-MB-231 was 47.4 µM; with MCF7, greater than 50 µM.
With `COc1ccc(C[C@H]2COc3ccccc3N2Cc2ccc(OCCN3CCCCCC3)cc2)cc1`, the IC50 in the data set with MDA-MB-231 was 10.1 µM; with MCF7, 18.1 µM.
Consider `CCN(CC)CCOCCOc1ccc(CN2c3ccccc3OC[C@@H]2Cc2ccc(OC)cc2)cc1`, for which the IC50 was 45 µM in the data set with MDA-MB-231 and 39.1 µM in the data set with MCF7.
The like results for `COc1ccc(C[C@H]2COc3cc(F)c(F)cc3N2Cc2ccc(OCCN3CCCCC3)cc2)cc1` were, in that order, 4.86 µM and 5.05 µM.
`COc1ccc(C[C@H]2COc3ccccc3N2Cc2ccc(OCCOCCN(C(C)C)C(C)C)cc2)cc1`: the figures for the IC50 with MDA-MB-231 and in the data set on MCF7 were greater than 50 µM and 5.5 µM, respectively.
In the case of `COc1ccc(C[C@H]2CSc3ccccc3N2Cc2ccc(OCCN3CCCCC3)cc2)cc1`, the values for the 50% inhibitory concentration (IC50) in the data set on MDA-MB-231 and in the data set on MCF7 were 12.2 µM and 17.4 µM, respectively.
Take `CCN(CC)CCOc1ccc(CN2c3ccccc3SC[C@@H]2Cc2ccc(OC)cc2)cc1`: the IC50 in the data set on MDA-MB-231 worked out at 26.7 µM; with MCF7, 31.7 µM.
On to `COc1ccc(C[C@@H]2COc3ccccc3N2Cc2ccc(OCCN3CCCCC3)cc2)cc1`, for which the results for the half-inhibitory concentration (IC50) in the data set on MDA-MB-231 and with MCF7 were 4.87 µM and 6.3 µM, respectively.
Take `COc1ccc(C[C@H]2COc3ccc(F)cc3N2Cc2ccc(OCCN3CCCC3)cc2)cc1`: the IC50 with MDA-MB-231 was found to be 3.23 µM; with MCF7 it was 3.34 µM.
For `COc1ccc(C[C@H]2COc3ccccc3N2Cc2ccc(OCCN3CCCCC3)cc2)cc1`, the IC50 in the data set on MDA-MB-231 is 11 µM; in the data set on MCF7, 0.68 µM.
The like results for `COc1ccc(C[C@H]2CSc3ccccc3N2Cc2ccc(OCCN3CCCC3)cc2)cc1` were, in that order, 10.9 µM and 30.8 µM.
For `COc1ccc(C[C@H]2CSc3ccccc3N2Cc2ccc(OCCN(C)C)cc2)cc1`, the IC50 in the data set with MDA-MB-231 turned out to be 25.5 µM; in the data set with MCF7 it was 28.8 µM.
The like results for `COc1ccc(C[C@H]2COc3ccccc3N2Cc2ccc(O)cc2)cc1` were, in that order, 40.2 µM and 24.4 µM.
Turning to `COc1ccc(C[C@H]2COc3ccccc3N2Cc2ccc(OCCOCCN3CCCCC3)cc2)cc1`, the figures for the IC50 with MDA-MB-231 and in the data set on MCF7 were greater than 50 µM and 7.81 µM, respectively.
In the case of `COc1ccc(C[C@H]2COc3ccccc3N2)cc1`, the results for the IC50 in the data set with MDA-MB-231 and with MCF7 were 36.4 µM and greater than 50 µM, respectively.
Take `COc1ccc(C[C@H]2COc3ccc(OC)cc3N2Cc2ccc(OCCN3CCCC3)cc2)cc1`: the values for the IC50 in the data set with MDA-MB-231 and with MCF7 were 3.59 µM and 3.34 µM, respectively.
Regarding `CC(C)N(CCOc1ccc(C[C@H]2COc3ccccc3N2Cc2ccccc2)cc1)C(C)C`, the figures for the IC50 with MDA-MB-231 and with MCF7 were greater than 50 µM and 40.4 µM, respectively.
As to `COc1ccc(C[C@H]2COc3ccc(C(F)(F)F)cc3N2Cc2ccc(OCCN3CCCC3)cc2)cc1`, the figures for the IC50 in the data set on MDA-MB-231 and in the data set on MCF7 were 6.89 µM and 6.86 µM, respectively.
`COc1ccc(C[C@H]2COc3ccccc3N2Cc2ccc(OCCOCCN3CCCC3)cc2)cc1`: the figures for the IC50 in the data set with MDA-MB-231 and in the data set on MCF7 were greater than 50 µM and 21.3 µM, respectively.
For `CN1c2ccccc2OC[C@@H]1Cc1ccc(OCCN2CCCC2)cc1`, in that order: greater than 50 µM and greater than 50 µM.
For the compound `COc1ccc(C[C@H]2CSc3ccccc3N2Cc2ccc(OCCN(C(C)C)C(C)C)cc2)cc1`, the concentration for half-maximal inhibition (IC50) with MDA-MB-231 and in the data set on MCF7 was greater than 50 µM each time.
For `CC(=O)O[C@H]1C(=O)[C@@]2(C)[C@H]([C@H](OC(=O)c3ccccc3)[C@]3(O)C[C@H](OC(=O)[C@H](O)[C@@H](NC(=O)c4ccccc4)c4ccccc4)C(C)=C1C3(C)C)[C@]1(OC(C)=O)CO[C@@H]1C[C@@H]2O` [PACLITAXEL], the IC50 with MDA-MB-231 turned out to be 3.77 µM.
`CCN1c2ccccc2OC[C@@H]1Cc1ccc(OCCN2CCCC2)cc1`: the IC50 was greater than 50 µM with MDA-MB-231 and 45.8 µM with MCF7.
In the case of `COc1ccc(C[C@H]2COc3ccccc3N2Cc2ccc(OCCN(C)C)cc2)cc1`, the 50% inhibitory concentration (IC50) in the data set with MDA-MB-231 came out at 11.1 µM; with MCF7 it was 6.75 µM.
With `COc1ccc(C[C@H]2COc3ccccc3N2Cc2ccc(OS(=O)(=O)c3ccc(C)cc3)cc2)cc1`, the IC50 in the data set on MDA-MB-231 and in the data set with MCF7 was greater than 50 µM each time.
Take `CN(C)CCOc1ccc(C[C@H]2COc3ccccc3N2Cc2ccccc2)cc1`: the IC50 in the data set on MDA-MB-231 is greater than 50 µM; in the data set with MCF7 it was 20.5 µM.
For `COc1ccc(C[C@H]2COc3cc(F)c(F)cc3N2Cc2ccc(OCCN3CCCC3)cc2)cc1`, in that order: 3.22 µM and 3.35 µM.
On to `COc1ccc(C[C@H]2COc3ccccc3N2Cc2ccc(OCCO)cc2)cc1`, for which the figures for the IC50 in the data set on MDA-MB-231 and in the data set with MCF7 were greater than 50 µM and 43.7 µM, respectively.
For `COc1ccc(C[C@H]2COc3ccccc3N2Cc2ccc(OCCN(C(C)C)C(C)C)cc2)cc1`, in that order: 0.83 µM and 77.6 µM.

These data come from ChEMBL document CHEMBL5055666, “Tyrosine-Derived Novel Benzoxazine Active in a Rat Syngenic Mammary Tumor Model of Breast Cancer” (J Med Chem, 2021).
